The target in this test is Kappa-type opioid receptor (Homo sapiens) (UniProt P41145). Nature of the test: kappa opioid receptor activation potency – imaging, image-based, SAR follow-up (AID 2359). As to conditions: KOR agonist image-based assay (receptor translocation imaging).

pEC50: −log10 of the molar value.

Kappa-type opioid receptor (Homo sapiens), sequence (P41145 whole entry, looked up): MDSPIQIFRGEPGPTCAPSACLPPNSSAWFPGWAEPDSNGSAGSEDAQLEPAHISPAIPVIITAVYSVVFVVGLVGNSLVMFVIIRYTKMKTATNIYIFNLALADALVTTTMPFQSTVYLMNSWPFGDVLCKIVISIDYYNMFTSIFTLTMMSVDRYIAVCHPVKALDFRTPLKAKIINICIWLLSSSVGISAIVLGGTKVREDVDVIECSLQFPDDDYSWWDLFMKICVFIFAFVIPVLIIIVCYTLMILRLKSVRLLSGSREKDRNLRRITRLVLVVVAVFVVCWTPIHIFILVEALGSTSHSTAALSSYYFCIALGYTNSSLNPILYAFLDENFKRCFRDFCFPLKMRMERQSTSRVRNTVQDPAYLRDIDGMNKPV

One may read the pEC50 as the EC50 on a negative log10 scale, so that one unit is a factor of ten. As to `CCCCN(Cc1cc2cc(C)ccc2[nH]c1=O)C(=O)c1ccccn1`, the pEC50 was 5.31.
Take `COc1ccc(CN(Cc2ccccn2)C(=O)CN2C(=O)COc3ccccc32)cc1`: the pEC50 is 5.00.

The record behind these values is PubChem BioAssay AID2359 (Sanford-Burnham Center for Chemical Genomics, 2010).
